Columns and labels:
Male C57/BL6N mice = test: Body surface temperature on odor presentation (thermography); format: in vivo, mouse; conditions: filter paper scented with 271 μmol odor, mean of 20 min, versus no odor
Description: An influence of a thiazoline-related compound and an odor molecule that induces learned fear on the body surface temperature was analyzed. Male C57/BL6N mice (about 3 months old) were anesthetized with pentobarbital (50 mg/kg, i.p.) 2-3 days before the test, and the back hair was depilated with depilatory cream. On the day of testing, each mouse was placed in a test cage and, after acclimation for 10 min, a filter paper scented with 271 μmol of a thiazoline-related compound (2-methyl-2-thiazoline; 2MT) or an odor molecule that induces learned fear (anisole) was presented in the test cage, and changes in the body surface temperature on the back were analyzed using a thermography camera (NEC Avio). The value of the body surface temperature change was calculated as the difference between the mean body surface temperature for 10min when water was presented and the mean body surface temperature for 20 min when each odor molecule was presented, and the change in the body surface temperature without odor was set to 0. […]
An influence of various thiazoline-related compounds on the body surface temperature was analyzed by a method similar to that in Example 1. As a control, an influence of an odor molecule that induces learned fear was also analyzed. […]

C57/BL6N male mice [1] = test: Survival time in 4% oxygen after odor presentation; format: in vivo, mouse; conditions: odor 100 μl (104 mmol) presented 50 min before; measured up to 30 min; no odor controls all died within 20 min
Description: About 3-month-old C57/BL6N male mice were each placed in a highly sealed breeding cage, and a filter paper scented with 100 μl (104 mmol) of the thiazoline-related compound (2MT) was placed in the breeding cage, and the odor was presented for 50 min. After the odor was presented, the mice were placed in a tight box in which the oxygen concentration was adjusted to 4%, and the survival time of the mice was measured up to 30 min at maximum. As a control, the survival time of mice presented with a filter paper dropped with water was also measured (no odor). Furthermore, changes in the core body temperature when the odor was presented under the same conditions as in this Example were measured by the same experimental method as in Example 4.

[2] = system: Skin ischemia-reperfusion injury model mouse; test: Skin ischemia-reperfusion injury (pressure ulcer) model, wound area; format: in vivo; conditions: odor 100 μl (104 mmol) 30 min before and during 12 hr of pinching the skin between magnets, versus no odor
Description: Skin ischemia-reperfusion injury model mouse was generated as follows according to the method of Uchiyama et al. (Uchiyama et al., Sci Rep 5:9072, 2015). The back hair of C57/BL6N male mice (about 3-month-old) was shaved in the same manner as in Example 1, 2-3 days before the test. On the day of the test, the mice were each placed in a highly sealed cage, and a filter paper scented with 100 μl (104 mmol) of the thiazoline-related compound (2MT) was placed in the breeding cage, and the odor was presented for 30 min. As a control, a filter paper dropped with water was presented for 30 min (no odor). After 30 min, the mouse was taken out from the cage, the dorsal skin was pinched between two circular magnets and the mouse was returned to the highly sealed cage. Furthermore, a filter paper scented with 100 μl (104 mmol) of 2 MT or water was placed in the highly sealed cage, and the mouse was left for 12 hr. […] The condition of the skin on the back, which was pinched between magnets, was recorded by taking photographs every day. Based on the obtained images, the wound area was quantified with image analysis software (Photoshop, Adobe). Furthermore, changes in the core body temperature when the odor was presented under the same conditions as in this Example were measured by the same experimental method as in Example 2.

C57/BL6N male mice [3] = test: Core body temperature under the odor conditions of Example 14; format: in vivo, mouse; conditions: odor presentation conditions of Example 14
Description: An influence of a thiazoline-related compound and an odor molecule that induces learned fear on the core body temperature was analyzed. A radio-telemetry device for monitoring biological parameters (manufactured by Physiotel) was surgically implanted in the abdomen of male C57/BL6N mice (about 3 months old). The mice were subjected to the following experiment after about 10 days of recovery period. […] The information of body temperature was recorded every 10 sec using Dataquest A.R.T. software (DataScience international). The value of the core body temperature change was calculated as the difference between the mean core body temperature for 10 min when water was presented and the mean core body temperature for 20 min when each odor molecule was presented, and the change in the core body temperature without odor was set to 0. […]
Skin ischemia-reperfusion injury model mouse was generated as follows according to the method of Uchiyama et al. (Uchiyama et al., Sci Rep 5:9072, 2015). […] The condition of the skin on the back, which was pinched between magnets, was recorded by taking photographs every day. Based on the obtained images, the wound area was quantified with image analysis software (Photoshop, Adobe). Furthermore, changes in the core body temperature when the odor was presented under the same conditions as in this Example were measured by the same experimental method as in Example 2.

sepsis model mouse = test: Survival time in LPS sepsis model; format: in vivo; conditions: about 80 mg/kg i.p., versus saline
Description: Lipopolysaccharide (LPS) (0.6 mg/kg) was intraperitoneally administered to male Balb/c mice (about 2-3 months old) to generate a sepsis model. Immediately after the LPS administration, 200 μl (about 80 mg/kg) of a solution prepared by diluting various heterocyclic compounds and isothiocyanate compounds 100 times with saline was intraperitoneally administered. Blood samples were collected 60 min after LPS and compound administration, EDTA plasma was prepared, and the blood level of inflammatory cytokine TNF-a was measured by the ELISA method.
A sepsis model mouse was prepared by the same method as in Example 18. Immediately after the LPS administration, 200 μl (about 80 mg/kg) of a thiazoline-related compound (2MT) solution prepared by diluting 100 times with saline was intraperitoneally administered. The survival time of the mouse was measured when the thiazoline-related compound (2MT) was administered and when saline, as a control, was administered (saline).

[4] = system: cerebral ischemia-reperfusion injury model mouse; test: Cerebral ischemia-reperfusion injury, MAP2-unstained area; format: in vivo; conditions: about 80 mg/kg i.p. at the reperfusion, two days after reperfusion, versus saline
Description: The bilateral common carotid arteries of about 3-month-old C57/BL6 mouse were ligated by clips to induce cerebral ischemia injury, and the blood was reperfused by removing the clips 30 min later. A thiazoline-related compound (2MT) solution (200 μl, about 80 mg/kg), or saline, as a control, was intraperitoneally administered at the reperfusion. Two days after the reperfusion, the brain tissue of the mouse was removed, brain sections were prepared, and the injured region was analyzed by antibody staining with Microtubule-associated protein 2 (MAP2).

CC1=NCCS1 [2MT, 2-methyl-2-thiazoline]
changes in the body surface temperature (Male C57/BL6N mice): clear decrease in the body surface temperature
survival time in 4% oxygen (C57/BL6N male mice [1]): many individuals survived even after 30 min
formation of pressure ulcer (wound area) [2]: formation of pressure ulcer significantly decreased
core body temperature (C57/BL6N male mice [3]): remarkable decrease in the core body temperature
survival time in sepsis model (sepsis model mouse): extending the survival time
area of the injured region of the brain (not stained with MAP2) [4]: reduce cerebral ischemia-reperfusion injury
